# Measurements taken from PubChem BioAssay AID260 (DTP/NCI, 2004).
# “And” between values parts separate entries of the source, which are not always exact repeats. Identical values can stand only once. Toxic doses and inconclusive results are not listed.
# Test system: CD2F1 mice, intracerebral L1210 leukemia, survival T/C
# Test: NCI In Vivo Anticancer Drug Screen. Data for tumor model L1210 Leukemia (intracerebral) in CD2F1 (CDF1) mice
# Conditions: higher = longer survival
# Method: The antitumor activity of compounds was measured in mice bearing transplantable tumors. Survival or tumor size were measured and the results are expressed as the measurement made in the treated group (T) divided by the measurement made in the vehicle treated control group (C). The tumor model used in this assay is L1210 Leukemia (intracerebral) in CD2F1 (CDF1) mice
# [1] = endpoint: median survival time, dose: 64.0 mg/kg/injection, schedule: Q01DX005 (ip), vehicle: saline with Tween-80
# [2] = endpoint: median survival time, dose: 200.0 mg/kg/injection, schedule: Q01DX009 (ip), vehicle: saline
structure (smiles),measurement,setting,value
c1ccc([C@H]2CN3CCSC3=N2)cc1,T/C,"endpoint: median survival time, dose: 5.0 mg/kg/injection, schedule: Q01DX009 (ip), vehicle: saline",100 % of control and 101 % of control and 103 % of control
same,T/C,"endpoint: median survival time, dose: 10.0 mg/kg/injection, schedule: Q01DX005 (ip), vehicle: saline",101 % of control
same,T/C,"endpoint: median survival time, dose: 10.0 mg/kg/injection, schedule: Q01DX009 (ip), vehicle: saline",124 % of control and 100 % of control and 102 % of control
same,T/C,"endpoint: median survival time, dose: 20.0 mg/kg/injection, schedule: Q01DX005 (ip), vehicle: saline",98 % of control and 116 % of control
same,T/C,"endpoint: median survival time, dose: 20.0 mg/kg/injection, schedule: Q01DX009 (ip), vehicle: saline",97 % of control (2×) and 104 % of control
same,T/C,"endpoint: median survival time, dose: 40.0 mg/kg/injection, schedule: Q01DX005 (ip), vehicle: saline",98 % of control and 113 % of control
O=NN(CCCl)C(=O)NC1CCC(=O)NC1=O (stereo unspecified),T/C,"endpoint: median survival time, dose: 2.0 mg/kg/injection, schedule: Q01DX001 (ip), vehicle: saline + alcohol",112 % of control
same,T/C,"endpoint: median survival time, dose: 8.0 mg/kg/injection, schedule: Q01DX001 (ip), vehicle: DMSO",602 % of control
same,T/C,"endpoint: median survival time, dose: 8.0 mg/kg/injection, schedule: Q01DX001 (ip), vehicle: saline + alcohol",192 % of control
same,T/C,"endpoint: median survival time, dose: 8.0 mg/kg/injection, schedule: Q01DX001 (oral), vehicle: saline + alcohol",168 % of control
same,T/C,"endpoint: median survival time, dose: 16.0 mg/kg/injection, schedule: Q01DX001 (ip), vehicle: DMSO",215 % of control
same,T/C,"endpoint: median survival time, dose: 16.0 mg/kg/injection, schedule: Q01DX001 (ip), vehicle: saline + alcohol",224 % of control
same,T/C,"endpoint: median survival time, dose: 16.0 mg/kg/injection, schedule: Q01DX001 (oral), vehicle: saline + alcohol",236 % of control
same,T/C,"endpoint: median survival time, dose: 32.0 mg/kg/injection, schedule: Q01DX001 (ip), vehicle: DMSO",95 % of control
same,T/C,"endpoint: median survival time, dose: 32.0 mg/kg/injection, schedule: Q01DX001 (ip), vehicle: saline + alcohol",389 % of control
same,T/C,"endpoint: median survival time, dose: 32.0 mg/kg/injection, schedule: Q01DX001 (oral), vehicle: saline + alcohol",164 % of control
same,T/C,"endpoint: median survival time, dose: 64.0 mg/kg/injection, schedule: Q01DX001 (oral), vehicle: saline + alcohol",97 % of control
N=[N+]=CC(=O)CCC(NC(=O)C(CCC(=O)C=[N+]=N)NC(=O)CCC(N)C(=O)O)C(=O)O (stereo unspecified),T/C,"endpoint: median survival time, dose: 0.05 mg/kg/injection, schedule: Q01DX005 (ip), vehicle: Klucel (hydroxypropylcellulose) (HPC)",95 % of control and 100 % of control
same,T/C,"endpoint: median survival time, dose: 0.1 mg/kg/injection, schedule: Q01DX005 (ip), vehicle: Klucel (hydroxypropylcellulose) (HPC)",93 % of control and 100 % of control
same,T/C,"endpoint: median survival time, dose: 0.2 mg/kg/injection, schedule: Q01DX005 (ip), vehicle: Klucel (hydroxypropylcellulose) (HPC)",96 % of control and 102 % of control
same,T/C,"endpoint: median survival time, dose: 0.4 mg/kg/injection, schedule: Q01DX005 (ip), vehicle: Klucel (hydroxypropylcellulose) (HPC)",94 % of control and 100 % of control
NC(=S)N/N=C/c1ccc(O)cn1,T/C,"endpoint: median survival time, dose: 12.0 mg/kg/injection, schedule: Q01DX005 (ip), vehicle: saline",95 % of control and 105 % of control
same,T/C,"endpoint: median survival time, dose: 24.0 mg/kg/injection, schedule: Q01DX005 (ip), vehicle: saline",107 % of control and 115 % of control
same,T/C,"endpoint: median survival time, dose: 48.0 mg/kg/injection, schedule: Q01DX005 (ip), vehicle: saline",113 % of control and 117 % of control
same,T/C,"endpoint: median survival time, dose: 96.0 mg/kg/injection, schedule: Q01DX005 (ip), vehicle: saline",121 % of control
CN(C)N=Nc1ccc([N+](=O)[O-])cc1C(N)=O,T/C,"endpoint: median survival time, dose: 32.0 mg/kg/injection, schedule: Q01DX005 (ip), vehicle: saline with Tween-80",100 % of control
same,T/C,[1],98 % of control
same,T/C,"endpoint: median survival time, dose: 128.0 mg/kg/injection, schedule: Q01DX005 (ip), vehicle: saline with Tween-80",121 % of control
Nc1nncs1,T/C,"endpoint: median survival time, dose: 7.5 mg/kg/injection, schedule: Q01DX009 (ip), vehicle: Klucel (hydroxypropylcellulose) (HPC)",113 % of control
same,T/C,"endpoint: median survival time, dose: 60.0 mg/kg/injection, schedule: Q01DX009 (ip), vehicle: Klucel (hydroxypropylcellulose) (HPC)",112 % of control
same,T/C,[1],118 % of control and 121 % of control and 116 % of control
N[C@H](C(=O)O)[C@@H]1CC(Cl)=NO1,T/C,"endpoint: mean survival time, dose: 16.0 mg/kg/injection, schedule: Q01DX009 (ip), vehicle: saline",124 % of control
same,T/C,"endpoint: mean survival time, dose: 32.0 mg/kg/injection, schedule: Q01DX009 (ip), vehicle: saline",101 % of control
CC(CN1CC(=O)NC(=O)C1)N1CC(=O)NC(=O)C1 (stereo unspecified),T/C,"endpoint: mean survival time, dose: 8.0 mg/kg/injection, schedule: Q01DX009 (ip), vehicle: Klucel (hydroxypropylcellulose) (HPC)",123 % of control
same,T/C,"endpoint: mean survival time, dose: 32.0 mg/kg/injection, schedule: Q01DX009 (ip), vehicle: Klucel (hydroxypropylcellulose) (HPC)",152 % of control
same,T/C,"endpoint: mean survival time, dose: 64.0 mg/kg/injection, schedule: Q01DX009 (ip), vehicle: Klucel (hydroxypropylcellulose) (HPC)",163 % of control
same,T/C,"endpoint: mean survival time, dose: 200.0 mg/kg/injection, schedule: Q04DX003 (ip), vehicle: steriod suspending solution",162 % of control
CN(N=O)C(=O)N[C@@H](C=O)[C@@H](O)[C@H](O)[C@H](O)CO,T/C,"endpoint: mean survival time, dose: 50.0 mg/kg/injection, schedule: Q01DX005 (ip), vehicle: saline",100 % of control
same,T/C,"endpoint: mean survival time, dose: 50.0 mg/kg/injection, schedule: Q01DX009 (ip), vehicle: saline",102 % of control
same,T/C,"endpoint: mean survival time, dose: 100.0 mg/kg/injection, schedule: Q01DX005 (ip), vehicle: saline",102 % of control
same,T/C,"endpoint: mean survival time, dose: 100.0 mg/kg/injection, schedule: Q01DX009 (ip), vehicle: saline",100 % of control
same,T/C,"endpoint: mean survival time, dose: 200.0 mg/kg/injection, schedule: Q01DX005 (ip), vehicle: saline",104 % of control
same,T/C,"endpoint: mean survival time, dose: 200.0 mg/kg/injection, schedule: Q01DX009 (ip), vehicle: saline",100 % of control
same,T/C,"endpoint: mean survival time, dose: 400.0 mg/kg/injection, schedule: Q01DX009 (ip), vehicle: saline",95 % of control
same,T/C,"endpoint: median survival time, dose: 75.0 mg/kg/injection, schedule: Q01DX001 (ip), vehicle: DMSO",102 % of control
same,T/C,"endpoint: median survival time, dose: 75.0 mg/kg/injection, schedule: Q01DX001 (ip), vehicle: other",103 % of control
same,T/C,"endpoint: median survival time, dose: 75.0 mg/kg/injection, schedule: Q01DX001 (oral), vehicle: saline",109 % of control
same,T/C,"endpoint: median survival time, dose: 150.0 mg/kg/injection, schedule: Q01DX001 (ip), vehicle: DMSO",114 % of control
same,T/C,"endpoint: median survival time, dose: 150.0 mg/kg/injection, schedule: Q01DX001 (ip), vehicle: other",107 % of control
same,T/C,"endpoint: median survival time, dose: 150.0 mg/kg/injection, schedule: Q01DX001 (oral), vehicle: saline",100 % of control
same,T/C,"endpoint: median survival time, dose: 300.0 mg/kg/injection, schedule: Q01DX001 (ip), vehicle: DMSO",114 % of control
same,T/C,"endpoint: median survival time, dose: 300.0 mg/kg/injection, schedule: Q01DX001 (ip), vehicle: other",109 % of control
same,T/C,"endpoint: median survival time, dose: 300.0 mg/kg/injection, schedule: Q01DX001 (oral), vehicle: saline",113 % of control
same,T/C,"endpoint: median survival time, dose: 500.0 mg/kg/injection, schedule: Q01DX001 (ip), vehicle: DMSO",112 % of control
same,T/C,"endpoint: median survival time, dose: 500.0 mg/kg/injection, schedule: Q01DX001 (ip), vehicle: other",103 % of control
same,T/C,"endpoint: median survival time, dose: 500.0 mg/kg/injection, schedule: Q01DX001 (oral), vehicle: saline",100 % of control
CN(C)N=Nc1cccc(C(N)=O)c1,T/C,"endpoint: median survival time, dose: 10.0 mg/kg/injection, schedule: Q01DX005 (ip), vehicle: Klucel (hydroxypropylcellulose) (HPC)",104 % of control and 112 % of control
same,T/C,"endpoint: median survival time, dose: 20.0 mg/kg/injection, schedule: Q01DX005 (ip), vehicle: Klucel (hydroxypropylcellulose) (HPC)",120 % of control and 115 % of control
same,T/C,"endpoint: median survival time, dose: 80.0 mg/kg/injection, schedule: Q01DX005 (ip), vehicle: Klucel (hydroxypropylcellulose) (HPC)",102 % of control and 110 % of control
Nc1nc(F)nc2c1ncn2C1OC(COP(=O)(O)O)C(O)C1O (stereo unspecified),T/C,"endpoint: median survival time, dose: 60.0 mg/kg/injection, schedule: Q01DX009 (ip), vehicle: saline",109 % of control
same,T/C,"endpoint: median survival time, dose: 90.0 mg/kg/injection, schedule: Q01DX009 (ip), vehicle: saline",106 % of control
same,T/C,[2],116 % of control
Cc1cn(C2CC(O)C(CO)O2)c(=O)[nH]c1=O (stereo unspecified),T/C,"endpoint: median survival time, dose: 100.0 mg/kg/injection, schedule: Q01DX009 (ip), vehicle: saline with Tween-80",104 % of control
same,T/C,"endpoint: median survival time, dose: 100.0 mg/kg/injection, schedule: Q01DX009 (ip), vehicle: saline",100 % of control and 103 % of control
same,T/C,"endpoint: median survival time, dose: 200.0 mg/kg/injection, schedule: Q01DX009 (ip), vehicle: saline with Tween-80",107 % of control
same,T/C,[2],98 % of control and 100 % of control
same,T/C,"endpoint: median survival time, dose: 400.0 mg/kg/injection, schedule: Q01DX009 (ip), vehicle: saline with Tween-80",109 % of control
same,T/C,"endpoint: median survival time, dose: 400.0 mg/kg/injection, schedule: Q01DX009 (ip), vehicle: saline",101 % of control
same,T/C,"endpoint: median survival time, dose: 800.0 mg/kg/injection, schedule: Q01DX009 (ip), vehicle: saline with Tween-80",114 % of control
same,T/C,"endpoint: median survival time, dose: 800.0 mg/kg/injection, schedule: Q01DX009 (ip), vehicle: saline",103 % of control and 113 % of control
same,T/C,"endpoint: median survival time, dose: 1600.0 mg/kg/injection, schedule: Q01DX009 (ip), vehicle: saline with Tween-80",106 % of control
